What was measured:
[1] = dog, in vivo
Method: A second series of tests will be carried out, as noted above, using beagle dogs. […] In the experiments, size 00 HPLC capsules will be filled with 758 mg of a powdered blend consisting of citric acid (643 mg), lauroyl carnitine (66 mg), talc (33 mg), salmon calcitonin (sCT) (13 mg) and aromatic-cationic peptide (2.4 mg). Half of the capsules will be coated with an enteric coating solution of L30D-55, while the remaining 50% of the capsules will not be coated. Four fasted dogs will be each given 1 uncoated capsule, and 2 weeks later they will be each given an enteric coated capsule. […] The plasma samples will be subsequently analyzed for sCT by a direct ELISA, and for aromatic-cationic peptide by HPLC-mass spectrometry performed as set forth in Wan, H. and Desiderio, D., Quantitation of dmt-DALDA in ovine plasma by on-line liquid chromatography/quadrapole time-of-flight mass spectrometry, Rapid Communications in Mass Spectrometry, 2003; 17, 538-546, the contents of which are incorporated herein by reference.
The results will be summarized as plasma peptide concentration normalized to a 1 mg dose as a function of time relative to the average Tmax, (i.e., the time at which the maximum amount of peptide is detected). The results are expected to indicate that both peptides, i.e., sCT and aromatic-cationic peptide, are detected in dogs given uncoated or enteric coated capsules.

[2] = Blood levels of salmon calcitonin after injection into duodenum, ileum or colon; assay type: in vivo; conditions: rat, other: injected directly into the duodenum, active components injected directly into the duodenum
Excerpt: The pH-lowering agent is believed to lower the local pH (where the active agent has been released) to levels below the optimal range for many intestinal proteases. This decrease in pH reduces the proteolytic activity of the intestinal proteases, thus affording protection to the peptide from potential degradation should the peptide be present within the intestine. The activity of these proteases is diminished by the temporarily acidic environment as discussed herein. For example, sufficient acid should be provided that local intestinal pH is lowered temporarily to 5.5 or below, 4.7 or below, or 3.5 or below. The sodium bicarbonate test described below (in the section captioned “the pH-Lowering Agent”) is indicative of the required acid amount. […] The absorption enhancers of the present formulations synergistically promote peptide absorption into the blood while conditions of reduced proteolytic activity prevail. The mechanism by which the present formulations are believed to accomplish the goal of enhanced bioavailability is aided by having active components of the finished pharmaceutical product released together as simultaneously as possible.
The acid is believed to lower the local intestinal pH, where the aromatic-cationic peptide has been released, to levels below the optimal range for many intestinal proteases and other intestinal enzymes. […]

amount detected in plasma, enteric coated vs non-coated capsules [1]: nearly eight times
Tmax [2]: 5 to 15 min
SMILES: CC(C)C[C@H](NC(=O)[C@H](CCCCN)NC(=O)CNC(=O)[C@H](CC(C)C)NC(=O)[C@@H](NC(=O)[C@@H]1CSSC[C@H](N)C(=O)N[C@@H](CO)C(=O)N[C@@H](CC(N)=O)C(=O)N[C@@H](CC(C)C)C(=O)N[C@@H](CO)C(=O)N[C@@H]([C@@H](C)O)C(=O)N1)C(C)C)C(=O)N[C@@H](CO)C(=O)N[C@@H](CCC(N)=O)C(=O)N[C@@H](CCC(=O)O)C(=O)N[C@@H](CC(C)C)C(=O)N[C@@H](Cc1c[nH]cn1)C(=O)N[C@@H](CCCCN)C(=O)N[C@@H](CC(C)C)C(=O)N[C@@H](CCC(N)=O)C(=O)N[C@H](C(=O)N[C@@H](Cc1ccc(O)cc1)C(=O)N1CCC[C@H]1C(=O)N[C@@H](CCCNC(=N)N)C(=O)N[C@H](C(=O)N[C@@H](CC(N)=O)C(=O)N[C@H](C(=O)NCC(=O)N[C@@H](CO)C(=O)NCC(=O)N[C@H](C(=O)N1CCC[C@H]1C(N)=O)[C@@H](C)O)[C@@H](C)O)[C@@H](C)O)[C@@H](C)O [salmon calcitonin]

From US20150118315A1, “AROMATIC-CATIONIC PEPTIDES AND USES OF SAME” (Stealth Peptides International, Inc., priority 2011, published 2015)
